This passage reports IC50 results from patent publication US7872018B2, “Compounds and methods for kinase modulation, and indications therefor” (Plexxikon, Inc., priority 2006, dated 2011).

The target in one assay is T1, Fms (Homo sapiens, UniProt P07333).
T1 construct: purchased Upstate Biotech 14-551
The assay is described as follows: Fms biochemical assay (AlphaScreen or 33P-ATP). As to conditions: under the test conditions employed; read-out: IC50 toward kinase Fms. An excerpt:
Each sample was at 5% DMSO.
(Alpha assays give light when donor and acceptor beads are brought close together.)

For the next assay, the target named is T2, Kit (Homo sapiens, UniProt P10721).
T2 construct: P1332.N6 BI PTP KIT M552-K948-X COD; made in house; host or cells: E. coli BL21(DE3)RIL, co-expressed with PTP1B
The assay is described as follows: c-kit biochemical assay (AlphaScreen or 33P-ATP). The conditions noted are these: under the test conditions employed; read-out: IC50 toward kinase Kit. The protocol:
C-kit kinase was at 1 ng per sample.
The c-kit enzyme used in the above assay was either obtained from Cell Signaling Technology (Cat. #7754) or was prepared as follows: A plasmid encoding kit (DNA and encoded protein sequences shown below) was engineered using common polymerase chain reaction (PCR) methods. Complementary DNA cloned from various human tissues were purchased from Invitrogen, and these were used as substrates in the PCR reactions. Specific custom synthetic oligonucleotide primers were designed to initiate the PCR product, and also to provide the appropriate restriction enzyme cleavage sites for ligation with the plasmids. The entire sequence encoding the enzyme was made through a gene synthesis procedure, using custom synthetic oligonucleotides covering the entire coding sequence (Invitrogen, see below).

The next assay deals with B-Raf V600E (Homo sapiens, UniProt P15056, V600E). The assay is described as follows: B-Raf V600E kinase activity assay. As to conditions: under the test conditions employed; read-out: IC50 toward kinase B-Raf V600E. In kind it is biochemical.
The target of another assay is B-Raf (Homo sapiens, UniProt P15056). Kind of assay: B-Raf kinase activity assay. Format: biochemical. As to conditions: under the test conditions employed; read-out: IC50 toward kinase B-Raf.
The target in another assay is Kdr (Homo sapiens, UniProt P35968). The assay is described as follows: Kdr kinase activity assay. Format: biochemical. As to conditions: under the test conditions employed; read-out: IC50 toward kinase Kdr.
A further assay addresses HGK (Homo sapiens, UniProt O95819). Kind of assay: HGK (MAP4K4) biochemical assay (AlphaScreen). The conditions noted are these: under the test conditions employed; read-out: IC50 toward kinase HGK. The protocol:
Substrate was 10 nM biotin-ERM (T567/T564/T558, Cell Signaling, Inc., cat#1344). MAP4K4 kinase was at 0.5 ng per sample. After incubation of the kinase reaction for 40 min at room temperature, 5 μl of donor beads and protein A acceptor beads (Perkin Elmer Life Science, cat#67606017) at final concentration 1 μg/ml in stop buffer (20 mM Tris, pH 7.4, 200 mM Nacl, 100 mM EDTA, 0.03% BSA) was added, along with Phospho-ERM Antibody (T567/T564/T558, Cell Signaling, Inc., cat#3141) at 1:1000 dilution. […] Phosphorylated substrate results in binding of the antibody which binds to protein A acceptor bead and association of the donor and acceptor beads is such that the signal correlates with kinase activity.

For the next assay, the target named is T3, TrkA (Homo sapiens, UniProt P04629).
T3 construct: purchased Upstate Biotech 14-571
Kind of assay: TrkA biochemical assay (AlphaScreen). The conditions noted are these: under the test conditions employed; read-out: IC50 toward kinase TrkA. The protocol: Compounds tested were dissolved in DMSO (1 μL) and added to a white 384-well plate (Costar #3705). […] Each sample was at 5% DMSO. The plate was then incubated for 40 minutes at room temperature.

Chain of HGK (O95819 whole entry): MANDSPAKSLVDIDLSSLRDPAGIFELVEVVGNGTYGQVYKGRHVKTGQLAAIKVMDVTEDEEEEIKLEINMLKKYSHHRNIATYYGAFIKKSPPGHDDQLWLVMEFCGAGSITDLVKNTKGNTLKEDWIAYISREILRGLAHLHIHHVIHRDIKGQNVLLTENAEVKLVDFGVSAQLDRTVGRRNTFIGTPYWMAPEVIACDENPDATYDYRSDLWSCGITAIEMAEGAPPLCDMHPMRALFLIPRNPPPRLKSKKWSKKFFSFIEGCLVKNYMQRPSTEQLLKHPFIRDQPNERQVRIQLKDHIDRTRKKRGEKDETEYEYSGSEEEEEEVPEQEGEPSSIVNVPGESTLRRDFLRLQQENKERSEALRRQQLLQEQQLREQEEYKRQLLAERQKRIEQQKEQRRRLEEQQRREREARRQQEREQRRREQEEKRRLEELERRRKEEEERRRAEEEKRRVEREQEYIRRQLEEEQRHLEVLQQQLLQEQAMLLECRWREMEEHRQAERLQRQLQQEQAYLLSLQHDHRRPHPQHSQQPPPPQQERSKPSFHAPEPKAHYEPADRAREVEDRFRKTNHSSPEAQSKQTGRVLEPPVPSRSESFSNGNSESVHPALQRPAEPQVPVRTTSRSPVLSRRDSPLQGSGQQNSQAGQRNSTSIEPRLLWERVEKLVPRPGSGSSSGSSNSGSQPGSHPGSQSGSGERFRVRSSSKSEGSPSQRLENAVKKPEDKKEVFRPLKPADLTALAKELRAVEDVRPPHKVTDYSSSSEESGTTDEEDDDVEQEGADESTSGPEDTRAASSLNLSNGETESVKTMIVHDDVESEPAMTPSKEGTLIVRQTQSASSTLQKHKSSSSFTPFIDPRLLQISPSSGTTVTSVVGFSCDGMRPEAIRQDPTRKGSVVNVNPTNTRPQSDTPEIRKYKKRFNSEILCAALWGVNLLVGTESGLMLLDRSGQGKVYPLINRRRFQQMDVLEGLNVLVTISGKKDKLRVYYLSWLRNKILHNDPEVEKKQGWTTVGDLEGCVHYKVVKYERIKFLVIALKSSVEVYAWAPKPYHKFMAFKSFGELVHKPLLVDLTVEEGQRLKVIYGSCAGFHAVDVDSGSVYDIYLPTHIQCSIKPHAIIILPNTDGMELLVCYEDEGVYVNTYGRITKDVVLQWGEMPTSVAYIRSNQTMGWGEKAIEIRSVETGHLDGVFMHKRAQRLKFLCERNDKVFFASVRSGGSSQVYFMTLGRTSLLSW
T3 sequence (P04629 33-796): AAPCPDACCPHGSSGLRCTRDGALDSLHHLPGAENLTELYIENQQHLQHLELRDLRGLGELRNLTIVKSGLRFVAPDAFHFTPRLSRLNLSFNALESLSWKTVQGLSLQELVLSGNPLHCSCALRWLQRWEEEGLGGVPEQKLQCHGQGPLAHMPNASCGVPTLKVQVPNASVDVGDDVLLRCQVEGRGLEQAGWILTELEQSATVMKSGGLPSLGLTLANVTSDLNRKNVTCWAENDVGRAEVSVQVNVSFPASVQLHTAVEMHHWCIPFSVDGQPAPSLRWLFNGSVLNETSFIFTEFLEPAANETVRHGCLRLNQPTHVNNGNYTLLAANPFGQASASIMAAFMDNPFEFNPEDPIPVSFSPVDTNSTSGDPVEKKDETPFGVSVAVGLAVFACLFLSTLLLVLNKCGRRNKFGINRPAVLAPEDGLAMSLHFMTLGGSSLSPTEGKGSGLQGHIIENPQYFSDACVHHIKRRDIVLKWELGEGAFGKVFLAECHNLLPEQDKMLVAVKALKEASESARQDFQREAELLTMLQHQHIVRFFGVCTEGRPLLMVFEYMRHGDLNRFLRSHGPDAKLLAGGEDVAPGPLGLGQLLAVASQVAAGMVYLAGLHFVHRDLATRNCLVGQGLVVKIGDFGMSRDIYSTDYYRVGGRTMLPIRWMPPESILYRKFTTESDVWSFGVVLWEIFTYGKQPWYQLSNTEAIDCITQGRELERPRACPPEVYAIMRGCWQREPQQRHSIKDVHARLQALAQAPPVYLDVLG
Chain of B-Raf (P15056 whole entry): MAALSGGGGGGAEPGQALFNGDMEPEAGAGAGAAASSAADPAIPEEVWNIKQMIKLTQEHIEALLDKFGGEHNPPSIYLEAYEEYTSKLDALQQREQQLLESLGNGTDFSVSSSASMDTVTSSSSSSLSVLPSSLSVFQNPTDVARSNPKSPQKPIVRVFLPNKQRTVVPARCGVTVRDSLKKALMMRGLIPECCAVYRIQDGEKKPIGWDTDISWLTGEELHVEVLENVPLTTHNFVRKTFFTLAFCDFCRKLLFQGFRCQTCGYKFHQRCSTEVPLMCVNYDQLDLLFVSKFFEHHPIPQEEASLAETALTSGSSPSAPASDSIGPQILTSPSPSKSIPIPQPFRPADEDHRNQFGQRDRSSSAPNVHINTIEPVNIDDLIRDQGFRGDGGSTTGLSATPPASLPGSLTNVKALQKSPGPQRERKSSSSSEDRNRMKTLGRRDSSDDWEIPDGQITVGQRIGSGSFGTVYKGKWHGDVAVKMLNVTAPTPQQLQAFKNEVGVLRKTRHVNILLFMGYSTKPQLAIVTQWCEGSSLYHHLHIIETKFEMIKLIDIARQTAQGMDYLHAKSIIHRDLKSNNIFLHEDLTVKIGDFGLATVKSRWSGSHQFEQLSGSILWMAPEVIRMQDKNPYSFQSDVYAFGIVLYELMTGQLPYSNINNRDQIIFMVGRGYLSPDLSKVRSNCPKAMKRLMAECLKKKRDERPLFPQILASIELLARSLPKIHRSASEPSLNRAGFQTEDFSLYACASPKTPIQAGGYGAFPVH
T2 sequence (P10721 552-948): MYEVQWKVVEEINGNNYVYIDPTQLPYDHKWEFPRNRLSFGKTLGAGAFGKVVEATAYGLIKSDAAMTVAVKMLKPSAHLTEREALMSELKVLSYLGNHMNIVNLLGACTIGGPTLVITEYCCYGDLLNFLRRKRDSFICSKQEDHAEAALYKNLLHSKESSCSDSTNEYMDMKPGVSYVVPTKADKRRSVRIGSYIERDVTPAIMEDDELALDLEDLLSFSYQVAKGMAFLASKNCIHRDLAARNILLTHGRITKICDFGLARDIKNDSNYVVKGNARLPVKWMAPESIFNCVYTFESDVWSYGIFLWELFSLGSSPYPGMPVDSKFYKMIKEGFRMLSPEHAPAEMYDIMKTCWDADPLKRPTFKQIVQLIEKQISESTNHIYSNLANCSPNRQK
Chain of Kdr (P35968 20-1356): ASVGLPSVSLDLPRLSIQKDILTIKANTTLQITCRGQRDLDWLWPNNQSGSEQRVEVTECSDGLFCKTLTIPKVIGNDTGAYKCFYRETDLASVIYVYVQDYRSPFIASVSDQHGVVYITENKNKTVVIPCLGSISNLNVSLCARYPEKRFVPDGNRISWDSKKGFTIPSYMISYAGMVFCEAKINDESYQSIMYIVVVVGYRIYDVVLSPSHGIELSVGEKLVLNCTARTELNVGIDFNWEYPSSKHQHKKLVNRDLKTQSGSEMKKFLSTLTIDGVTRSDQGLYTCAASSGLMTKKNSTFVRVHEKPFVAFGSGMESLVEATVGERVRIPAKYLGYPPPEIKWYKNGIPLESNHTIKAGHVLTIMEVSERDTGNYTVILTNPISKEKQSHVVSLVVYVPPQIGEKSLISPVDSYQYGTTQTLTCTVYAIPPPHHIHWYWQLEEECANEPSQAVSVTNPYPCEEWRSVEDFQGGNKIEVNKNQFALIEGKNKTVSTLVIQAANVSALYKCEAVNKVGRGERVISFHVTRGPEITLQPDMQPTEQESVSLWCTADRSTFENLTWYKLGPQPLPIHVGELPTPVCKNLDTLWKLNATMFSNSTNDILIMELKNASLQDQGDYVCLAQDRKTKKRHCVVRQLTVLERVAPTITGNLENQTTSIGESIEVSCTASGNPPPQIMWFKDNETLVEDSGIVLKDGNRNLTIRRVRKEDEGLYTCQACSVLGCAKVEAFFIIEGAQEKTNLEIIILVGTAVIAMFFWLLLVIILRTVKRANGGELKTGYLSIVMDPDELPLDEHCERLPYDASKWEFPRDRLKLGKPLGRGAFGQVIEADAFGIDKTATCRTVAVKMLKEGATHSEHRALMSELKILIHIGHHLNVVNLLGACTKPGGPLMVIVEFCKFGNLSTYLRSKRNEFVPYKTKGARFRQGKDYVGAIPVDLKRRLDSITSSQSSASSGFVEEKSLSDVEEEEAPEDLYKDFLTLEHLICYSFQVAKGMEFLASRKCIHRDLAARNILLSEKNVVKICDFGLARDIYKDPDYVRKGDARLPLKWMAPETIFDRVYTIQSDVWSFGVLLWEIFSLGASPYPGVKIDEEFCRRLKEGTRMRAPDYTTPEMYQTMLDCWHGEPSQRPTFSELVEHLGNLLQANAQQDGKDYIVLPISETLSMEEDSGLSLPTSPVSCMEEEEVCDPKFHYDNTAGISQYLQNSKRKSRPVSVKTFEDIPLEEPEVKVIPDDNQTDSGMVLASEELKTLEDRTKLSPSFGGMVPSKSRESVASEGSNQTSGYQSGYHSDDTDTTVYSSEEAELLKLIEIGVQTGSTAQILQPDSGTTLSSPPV
Chain of B-Raf V600E (P15056 whole entry V600E): as the sequence (P15056 whole entry) above, with V600E counted along it

The term IC50 denotes the concentration that gives 50% inhibition. For the compound `COc1cc(Cc2c[nH]c3ncccc23)cc(F)c1OCc1ccc(Cl)cc1` [P-1466, 3-[4-(4-Chloro-benzyloxy)-3-fluoro-5-methoxy-benzyl]-1H-pyrrolo[2,3-b]pyridine], the IC50 at Fms, at Kit and at B-Raf V600E was at most 10 µM each time.
`CCOc1cc(Cc2c[nH]c3ncccc23)ccc1OCc1ccc(Cl)cc1` [P-1470, 3-[4-(4-Chloro-benzyloxy)-3-ethoxy-benzyl]-1H-pyrrolo[2,3-b]pyridine]: the half-inhibitory concentration (IC50) on Fms, at Kit and at B-Raf V600E was at most 10 µM each time.
Regarding `Clc1ccc(COc2ccc(Cc3c[nH]c4ncccc34)c(Cl)c2)cc1` [P-1471, 3-[2-Chloro-4-(4-chloro-benzyloxy)-benzyl]-1H-pyrrolo[2,3-b]pyridine], the IC50 on Fms, on Kit and on B-Raf V600E was at most 10 µM in each case.
Take `COc1cc(Cc2c[nH]c3ncccc23)ccc1OCc1c(F)cc(F)cc1F` [P-1578, 3-[3-Methoxy-4-(2,4,6-trifluoro-benzyloxy)-benzyl]-1H-pyrrolo[2,3-b]pyridine]: the IC50 at Kit and on B-Raf V600E was at most 10 µM throughout.
In the case of `COc1cc(Cc2c[nH]c3ncccc23)ccc1OCc1c(Cl)cccc1Cl` [P-1579, 3-[4-(2,6-Dichloro-benzyloxy)-3-methoxy-benzyl]-1H-pyrrolo[2,3-b]pyridine], the IC50 on B-Raf V600E is at most 10 µM.
On to `COc1cc(Cc2c[nH]c3ncccc23)cc(Cl)c1OCc1ccc(Cl)cc1` [P-1616, 3-[3-Chloro-4-(4-chloro-benzyloxy)-5-methoxy-benzyl]-1H-pyrrolo[2,3-b]pyridine], for which the 50% inhibitory concentration (IC50) at Fms and on B-Raf was at most 10 µM each time.
Take `COc1cc(C(=O)c2c[nH]c3ncccc23)ccc1OCc1ccc(Cl)cc1` [P-1698, [4-(4-Chloro-benzyloxy)-3-methoxy-phenyl]-(1H-pyrrolo[2,3-b]pyridin-3-yl)-methanone]: the IC50 on B-Raf V600E is at most 10 µM.
In the case of `COc1cc(Cc2c[nH]c3ncccc23)ccc1OCc1ccc(C(F)(F)F)cc1` [P-1721, 3-[3-Methoxy-4-(4-trifluoromethyl-benzyloxy)-benzyl]-1H-pyrrolo[2,3-b]pyridine], the IC50 at Fms, at B-Raf V600E and on B-Raf was at most 10 µM in each case.
Turning to `Clc1ccc(COc2ccc(Cl)c(Cc3c[nH]c4ncccc34)c2Cl)cc1` [P-1768, 3-[2,6-Dichloro-3-(4-chloro-benzyloxy)-benzyl]-1H-pyrrolo[2,3-h]pyridine], the IC50 at Fms, on B-Raf V600E and at B-Raf was at most 10 µM each time.
For the compound `O=C(c1c(Cl)ccc(OCc2ccc(Cl)cc2)c1Cl)c1c[nH]c2ncccc12` [P-1769, [2,6-Dichloro-3-(4-chloro-benzyloxy)-phenyl]-(1-pyrrolo[2,3-b]pyridin-3-yl)methanone], the IC50 on Fms, on B-Raf V600E and at B-Raf was at most 10 µM in each case.
On to `FC(F)(F)c1ccc(COc2ccc(Cc3c[nH]c4ncccc34)cc2C(F)(F)F)cc1` [P-1797, 3-[3-Trifluoromethyl-4-(4-trifluoromethyl-benzyloxy)-benzyl]-1H-pyrrolo[2,3-b]pyridine], for which the IC50 at B-Raf V600E is at most 10 µM.
For the compound `O=C(c1c(F)ccc(OCc2ccccc2)c1F)c1c[nH]c2ncc(Cl)cc12` [P-1825, (3-Benzyloxy-2,6-difluoro-phenyl)-(5-chloro-1H-pyrrolo[2,3-b]pyridin-3-yl)-methanone], at B-Raf, the half-maximal inhibitory concentration (IC50) was at most 10 µM.
On to `Fc1cc(OCc2nc3ccccc3[nH]2)cc(F)c1Cc1c[nH]c2ncc(Cl)cc12` [P-2105, 2-[4-(5-Chloro-1H-pyrrolo[2,3-b]pyridin-3-ylmethyl)-3,5-difluoro-phenoxymethyl]-1H-benzoimidazole], for which the IC50 on Fms, at Kit, at Kdr and at HGK was at most 10 µM each time.
Regarding `COc1cnc2[nH]cc(Cc3cc(F)c(OCc4nc5ccccc5[nH]4)cc3Cl)c2c1` [P-2114, 2-[5-Chloro-2-fluoro-4-(5-methoxy-1H-pyrrolo[2,3-b]pyridin-3-ylmethyl)-phenoxymethyl]-1H-benzoimidazole], the IC50 at Fms, at Kit, at TrkA, at Kdr and on HGK was at most 10 µM throughout.
As to `COc1cnc2[nH]cc(Cc3c(F)ccc(OCC(F)(F)F)c3Cl)c2c1` [P-2147, 3-[2-Chloro-6-fluoro-3-(2,2,2-trifluoro-ethoxy)-benzyl]-5-methoxy-1H-pyrrolo[2,3-b]pyridine], the IC50 at Fms and on Kdr was at most 10 µM in each case.
Regarding `O=C(c1c(F)ccc(OCC(F)(F)F)c1Cl)c1c[nH]c2ncccc12` [P-2150, [2-Chloro-6-fluoro-3-(2,2,2-trifluoro-ethoxy)-phenyl]-(1H-pyrrolo[2,3-b]pyridin-3-yl)-methanone], the IC50 on Fms and on Kdr was at most 10 µM in each case.
As for `COc1cnc2[nH]cc(Cc3c(Cl)ccc(OCC(F)(F)F)c3Cl)c2c1` [P-2153, 3-[2,6-Dichloro-3-(2,2,2-trifluoro-ethoxy)-benzyl]-5-methoxy-1H-pyrrolo[2,3-b]pyridine], the IC50 on Fms and at Kdr was at most 10 µM in each case.
On to `COCCOc1ccc(F)c(Cc2c[nH]c3ncccc23)c1Cl` [P-2158, 3-[2-Chloro-6-fluoro-3-(2-methoxy-ethoxy)-benzyl]-1H-pyrrolo[2,3-b]pyridine], for which the IC50 on Fms, on Kit and on Kdr was at most 10 µM throughout.
In the case of `COc1cc(Cc2c[nH]c3ncc(Cl)cc23)c(Cl)cc1OCc1ccc(Cl)cc1F` [P-2167, 5-Chloro-3-[2-chloro-4-(4-chloro-2-fluoro-benzyloxy)-5-methoxy-benzyl]-1H-pyrrolo[2,3-b]pyridine], the IC50 on Fms, at Kit and on Kdr was at most 10 µM each time.
Take `COc1cc(Cc2c[nH]c3ncc(Cl)cc23)c(F)cc1OCc1nc2cc(S(=O)(=O)N(C)C)ccc2[nH]1` [P-2173, 2-[4-(5-Chloro-1H-pyrrolo[2,3-b]pyridin-3-ylmethyl)-5-fluoro-2-methoxy-phenoxymethyl]-1H-benzoimidazole-5-sulfonic acid dimethylamide]: the concentration for half-maximal inhibition (IC50) at Fms, on Kit, on TrkA, on HGK and on B-Raf was at most 10 µM throughout.
For `COCCOc1cnc2[nH]cc(Cc3cc(F)c(OCc4nc5ccccc5[nH]4)cc3F)c2c1` [P-2176, 2-{2,5-Difluoro-4-[5-(2-methoxy-ethoxy)-1H-pyrrolo[2,3-b]pyridin-3-ylmethyl]-phenoxymethyl}-1H-benzoimidazole], the half-inhibitory concentration (IC50) on Fms, at Kit, on TrkA, on Kdr and on HGK was at most 10 µM in each case.
With `COc1cc(Cc2c[nH]c3ncc(Cl)cc23)c(F)cc1OCCc1nc2ccccc2[nH]1` [P-2180, 2-{2-[4-(5-Chloro-1H-pyrrolo[2,3-b]pyridin-3-ylmethyl)-5-fluoro-2-methoxy-phenoxy]-ethyl}-1H-benzoimidazole], the IC50 on Fms, at Kit, at TrkA and on HGK was at most 10 µM each time.
